This note sets out measurements from patent publication US11365195B2, “Atypical inhibitors of monoamine transporters; method of making; and use thereof” (THE UNITED STATES OF AMERICA, AS REPRESENTED BY THE …, priority 2017, dated 2022).

Read-outs that look alike come from different tables or passages of the source.

One data set addresses T1, σ1R (Cavia porcellus, UniProt Q60492).
T1 construct: tissue BioReclamation IVT (Hicksville, N.Y.); host or cells: male Hartley guinea pig brain cortex membranes
In words: σ1R radioligand binding in guinea pig cortex ([3H]-(+)-Pentazocine competition). Particulars: for σ1/DAT: ratio of σ1 to DAT affinity values; for σ1/SERT: ratio of σ1 to SERT affinity values. As to the method:
(§1) Binding affinities of the analogue compounds were evaluated at the DAT and SERT in rat brain membranes, and sigma-1 in guinea pig brain membranes according to the following protocols.
σ1R Radioligand Binding in Guinea Pig Cortex
Male Hartley guinea pig cortices were dissected from freshly harvested brains (shipped cold in PBS buffer from BioReclamation IVT (Hicksville, N.Y.)) and frozen at −80° C. for future use. […] The supernatant was collected in a clean tube and the pellet re-suspended in 10 ml of cold buffer and centrifuged again (˜1,200 rpm) for 10 min at 4° C. […] The final pellet was suspended in ice-cold binding buffer at 50 mg/ml concentration. […] All test compounds were freshly dissolved in 30% DMSO and 70% H2O to a stock concentration of 1 mM or 100 μM. When necessary, to assist the solubilization of compounds, 10 μl of glacial acetic acid was added along with the DMSO (in place of 10 μl final H2O volume). Each test compound was then diluted into 10 half-log serial dilutions using 30% DMSO as the vehicle. […] Nonspecific binding was determined using either 10 μM PRE084 or 10 μM (+)-Pentazocine and total binding was determined with 30% DMSO vehicle (3% DMSO final concentration). […] The filters were washed 3 times with 3 ml (3×1 ml/well) of ice cold binding buffer.

Data set [1] is described as follows: Phase I metabolic stability in rat liver microsomes. The class given is in vitro ADME. Particulars: for Phase I in Liver Microsomes, Negative Control: rat liver microsomes lacking NADPH; for Phase I in Liver Microsomes, Rat: with NADPH, 10 μM compound, 0.5 mg/mL microsomes. As to the method:
Methods: Phase I metabolic stability assays were conducted in rat liver microsomes. For phase I metabolism, the reactions were carried out with 100 mM potassium phosphate buffer, pH 7.4, in the presence of NADPH regenerating system (1.3 mM NADPH, 3.3 mM glucose 6-phosphate, 3.3 mM MgCl2, 0.4 U/mL glucose-6-phosphate dehydrogenase, […] sodium citrate). Reactions in triplicate were initiated by addition of the liver microsomes to the incubation mixture (compound final concentration was 10 μM; 0.5 mg/mL microsomes). Compound disappearance was monitored via LC/MS/MS. […] The total run time for each analyte was 5.0 min.
A general note: Microsomes from liver hold many membrane-bound enzymes, among them those of drug oxidation.

Another data set deals with T2, SERT (Rattus norvegicus, UniProt P31652).
T2 construct: 100 μl of tissue preparation (2 mg of brain stem membranes per well); tissue Bioreclamation IVT (Hicksville, N.Y.); host or cells: male Sprague-Dawley rat brain stem membranes
In words: SERT radioligand binding in rat midbrain ([3H]-Citalopram competition). As to the method: as §1
SERT Radioligand Binding in Rat Midbrain
(§2) The tissue was centrifuged at 20,000 rpm for 10 min at 4° C. The pellet was suspended in cold buffer and centrifuged again using the same settings. The resulting pellet was resuspended in cold buffer at a concentration of 20 mg/mL OWW (original wet weight). On test day, all test compounds were freshly dissolved in 30% DMSO and 70% H2O to a stock concentration of 1 mM or 100 μM. When necessary, to assist the solubilization of compounds, 10 μl of glacial acetic acid was added along with the DMSO (in place of 10 μl final H2O volume). Each test compound was then diluted into 10 half-log serial dilutions using 30% DMSO vehicle. […] Non-specific binding was determined using 10 μL Fluoxetine HCl and total binding was determined with 30% DMSO vehicle. The reaction was started with the addition of the tissue. All compound dilutions were tested in triplicate and the reaction incubated for 60 min at room temperature. The reaction was terminated by filtration through Perkin Elmer Uni-Filter-96 GF/B, presoaked for 60 min in 0.3% polyethylenimine, using a Brandel 96-Well Plates Harvester Manifold (Brandel Instruments, Gaithersburg, Md.). The filters were washed 3 times with 3 mL (3×1 mL/well) of ice cold binding buffer. […] These analyses were performed using GraphPad Prism version 6.00 for Macintosh (GraphPad Software, San Diego, Calif.).

For a further data set, the target named is T3, DAT (Rattus norvegicus, UniProt P23977).
T3 construct: 100 μl of tissue preparation (1.5 mg of brain striatum membranes per well); tissue Bioreclamation IVT (Hicksville, N.Y.); host or cells: male Sprague-Dawley rat brain striatum membranes
In words: DAT radioligand binding in rat striatum ([3H]-WIN35,428 competition). The note with it: for SERT/DAT: ratio of SERT Ki to DAT Ki. Here is the method: as §1
DAT Radioligand Binding in Rat Striatum
as §2, with “of 15” for “of 20”, “100 μM” for “100 μM.”, “[…] Indatraline” for “μL Fluoxetine HCl”, “tissue. […]” for “tissue. All compound dilutions were tested in triplicate and the reaction incubated for 60 min at room temperature. The reaction was terminated by filtration through Perkin Elmer Uni-Filter-96 GF/B, presoaked for 60 min in 0.3% polyethylenimine, using a Brandel 96-Well Plates Harvester Manifold (Brandel Instruments, Gaithersburg, Md.).”

The mark [2] stands for this setting: rat midbrain/brain stem membranes, [3H]-Citalopram, mean ± SEM, read-out: SERT (rat mid-brain-stem) Ki ± SEM.
[3] abbreviates: rat striatum membranes, [3H]-WIN35,428, mean ± SEM, read-out: DAT (rat striatum) Ki ± SEM.

T2 sequence (P31652 whole entry): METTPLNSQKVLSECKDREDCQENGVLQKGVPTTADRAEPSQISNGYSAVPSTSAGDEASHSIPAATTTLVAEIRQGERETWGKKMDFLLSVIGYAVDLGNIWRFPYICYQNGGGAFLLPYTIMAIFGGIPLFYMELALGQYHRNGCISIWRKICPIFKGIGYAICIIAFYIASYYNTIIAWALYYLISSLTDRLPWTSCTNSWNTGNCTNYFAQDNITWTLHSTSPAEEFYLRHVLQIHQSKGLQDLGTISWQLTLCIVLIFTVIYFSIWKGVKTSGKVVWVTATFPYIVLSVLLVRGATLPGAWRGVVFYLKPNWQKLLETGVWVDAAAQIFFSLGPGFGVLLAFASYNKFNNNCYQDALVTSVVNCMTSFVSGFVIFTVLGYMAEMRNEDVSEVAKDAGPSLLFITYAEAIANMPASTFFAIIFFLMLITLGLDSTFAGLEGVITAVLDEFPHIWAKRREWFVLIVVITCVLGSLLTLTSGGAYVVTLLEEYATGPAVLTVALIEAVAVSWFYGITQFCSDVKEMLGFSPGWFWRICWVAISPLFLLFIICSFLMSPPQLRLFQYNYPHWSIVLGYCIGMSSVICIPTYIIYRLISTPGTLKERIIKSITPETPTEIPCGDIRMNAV
T3 sequence (P23977 whole entry): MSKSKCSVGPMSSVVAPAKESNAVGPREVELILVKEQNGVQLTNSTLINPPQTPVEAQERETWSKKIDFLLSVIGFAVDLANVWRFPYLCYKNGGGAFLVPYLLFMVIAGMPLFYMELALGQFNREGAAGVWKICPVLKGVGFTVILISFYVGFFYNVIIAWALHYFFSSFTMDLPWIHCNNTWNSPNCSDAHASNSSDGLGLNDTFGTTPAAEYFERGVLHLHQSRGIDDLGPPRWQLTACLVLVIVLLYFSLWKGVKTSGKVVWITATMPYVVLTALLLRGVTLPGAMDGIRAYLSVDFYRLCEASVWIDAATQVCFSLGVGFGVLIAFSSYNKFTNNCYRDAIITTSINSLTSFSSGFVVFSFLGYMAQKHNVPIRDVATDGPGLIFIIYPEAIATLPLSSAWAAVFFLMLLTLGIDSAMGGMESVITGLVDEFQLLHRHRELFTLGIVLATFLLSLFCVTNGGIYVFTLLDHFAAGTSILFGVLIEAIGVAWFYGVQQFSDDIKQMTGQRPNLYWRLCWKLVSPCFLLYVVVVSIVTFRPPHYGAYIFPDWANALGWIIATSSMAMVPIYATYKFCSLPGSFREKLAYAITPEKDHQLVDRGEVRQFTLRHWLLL
T1 sequence (Q60492 whole entry): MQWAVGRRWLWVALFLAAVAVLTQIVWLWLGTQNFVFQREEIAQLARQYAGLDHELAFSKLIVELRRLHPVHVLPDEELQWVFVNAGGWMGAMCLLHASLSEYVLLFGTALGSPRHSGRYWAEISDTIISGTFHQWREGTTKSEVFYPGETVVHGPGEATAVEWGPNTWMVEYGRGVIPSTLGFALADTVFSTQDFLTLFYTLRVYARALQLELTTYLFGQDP

In the case of `Cl.O=C(c1ccc(F)cc1)N1CCC(NCC[S+]([O-])C(c2ccc(F)cc2)c2ccc(F)cc2)CC1` (stereo not drawn) [JBG02-056, (4-((2-((Bis(4-fluorophenyl)methyl)sulfinyl)ethyl)amino)piperidin-1-yl)(4-fluorophenyl)methanone], on σ1R, the Kd (usually the concentration at which binding is half-saturated) amounted to 1320 ± 36.5 nM, the σ1/DAT is reported as 17.10 and the σ1/SERT was determined as 0.29. For the same compound, in data set [1] (0 min), the “Phase I in Liver Microsomes, Negative Control” value (“Phase I … Negative Control” below) is recorded as 100% and the “Phase I in Liver Microsomes, Rat” value was determined as 100%. In data set [1] (30 min), the “Phase I … Negative Control” value is reported as 97% and the “Phase I in Liver Microsomes, Rat” value was 100%. Also, in data set [1] (60 min), the “Phase I … Negative Control” value amounted to 91% and the “Phase I in Liver Microsomes, Rat” value stood at 79%. Besides, on SERT (setting [2]), the inhibition constant (Ki) – broadly, the equilibrium dissociation constant of an inhibitor or competing ligand from its target – stood at 4620 ± 379 nM. Moreover, at DAT (setting [3]), the inhibitory constant (Ki) was 77.2 ± 4.54 nM. At DAT, the SERT/DAT was determined as 59.84.
Regarding `CC(O)CN1[C@H](C)CN(CC[S+]([O-])C(c2ccc(F)cc2)c2ccc(F)cc2)C[C@@H]1C` (stereo partly drawn) [RDS04-010, 1-((2S,6R)-4-(2-((Bis(4-fluorophenyl)methyl)sulfinyl)ethyl)-2,6-dimethylpiperazin-1-yl)propan-2-ol], the σ1/DAT on σ1R was found to be 1.29. Also, the σ1/SERT on σ1R was determined as 0.017. Besides, the “Phase I … Negative Control” value in data set [1] (0 min) was found to be 100%; in data set [1] (30 min), 130%; in data set [1] (60 min), 108%. In addition, the “Phase I in Liver Microsomes, Rat” value is 100% in data set [1] (0 min), 115% in data set [1] (30 min) and 95% in data set [1] (60 min). Moreover, the figures for the inhibition constant Ki at SERT (setting [2]) and at DAT (setting [3]) were 19000 ± 2550 nM and 245 ± 49.7 nM, respectively. The SERT/DAT on DAT is 77.55.
In the case of `C[C@@H]1CN(CC[S+]([O-])C(c2ccc(F)cc2)c2ccc(F)cc2)C[C@H](C)N1CC(O)Cc1ccccc1` (stereo partly drawn) [RDS04-011, 1-((2S,6R)-4-(2-((Bis(4-fluorophenyl)methyl)sulfinyl)ethyl)-2,6-dimethylpiperazin-1-yl)-3-phenylpropan-2-ol], on σ1R, the σ1/DAT is reported as 11.12. In addition, the σ1/SERT on σ1R is 0.029. The “Phase I … Negative Control” value in data set [1] (0 min) is 100%; in data set [1] (30 min) it was 132%; in data set [1] (60 min), 106%. Besides, the “Phase I in Liver Microsomes, Rat” value in data set [1] (0 min) stood at 100%; in data set [1] (30 min), 58%; in data set [1] (60 min), 26%. The “stability to Phase I metabolism (in words)” value in data set [1] (rat liver microsomes fortified with NADPH) is reported as “susceptibility”. For the same compound, the inhibition constant Ki at SERT (setting [2]) is 2560 ± 181 nM; at DAT (setting [3]), 6.78 ± 2.97 nM. For the same compound, the SERT/DAT on DAT is reported as 377.58.
With `Cl.Cl.OC(CNC1CCN(CCSC(c2ccc(F)cc2)c2ccc(F)cc2)CC1)Cc1ccccc1` (stereo not drawn) [JBG01-061, 1-((1-(2-((Bis(4-fluorophenyl)methyl)thio)ethyl)piperidin-4-yl)amino)-3-phenylpropan-2-ol], on σ1R, the σ1/DAT amounted to 1.84. Moreover, the σ1/SERT on σ1R was determined as 1.33. For the same compound, the “Phase I … Negative Control” value is 100% in data set [1] (0 min) and 109% in data set [1] (60 min). For the same compound, the entries for the “Phase I in Liver Microsomes, Rat” value in data set [1] (0 min), in data set [1] (30 min) and in data set [1] (60 min) were 100%, 83% and 69%, respectively. Besides, the Ki at SERT (setting [2]) was 66.3 ± 2.81 nM; on DAT (setting [3]), 47.7 ± 2.62 nM. Further, on DAT, the SERT/DAT came out at 1.39.
Turning to `Cl.Cl.Fc1ccc(C(SCCN2CCC(NCc3ccc(Cl)cc3)CC2)c2ccc(F)cc2)cc1` [JBG01-086, 1-(2-((Bis(4-fluorophenyl)methyl)thio)ethyl)-N-(4-chlorobenzyl)piperidin-4-amine], on σ1R, the σ1/DAT is 0.72 and the σ1/SERT turned out to be 0.16. The inhibitory constant (Ki) on SERT (setting [2]) amounted to 395 ± 56.6 nM. For the same compound, on DAT (setting [3]), the inhibition constant (Ki) came out at 86.5 ± 35.6 nM. Besides, the SERT/DAT at DAT is recorded as 4.57.
As for `CC(C)(C)C(=O)N1CCC(NCC[S+]([O-])C(c2ccc(F)cc2)c2ccc(F)cc2)CC1` (stereo not drawn) [JBG02-072, 1-(4-((2-((Bis(4-fluorophenyl)methyl)sulfinyl)ethyl)amino)piperidin-1-yl)-2,2-dimethylpropan-1-one], the σ1/DAT on σ1R worked out at 1.10. In addition, the Ki is 32000 ± 6760 nM on SERT (setting [2]) and 10200 ± 3610 nM at DAT (setting [3]). At DAT, the SERT/DAT is given as 3.14.
Regarding `Cl.Cl.Fc1ccc(CNC2CCN(CCSC(c3ccc(F)cc3)c3ccc(F)cc3)CC2)cc1` [JBG01-064, 1-(2-((Bis(4-fluorophenyl)methyl)thio)ethyl)-N-(4-fluorobenzyl)piperidin-4-amine], at σ1R, the σ1/DAT is on record as 0.74 and the σ1/SERT was found to be 0.16. Besides, the inhibition constant Ki at SERT (setting [2]) was determined as 267 ± 9.25 nM. Further, the inhibitory constant (Ki) on DAT (setting [3]) worked out at 55.9 ± 6.08 nM. On DAT, the SERT/DAT is reported as 4.78.
For `O=C(C1CC1)N1CCC(NCCSC(c2ccc(F)cc2)c2ccc(F)cc2)CC1` [JBG02-083, (4-((2-((bis(4-fluorophenyl)methyl)thio)ethyl)amino)piperidin-1-yl)(cyclopropyl)methanone], the σ1/DAT at σ1R was 0.26. The values for the inhibition constant Ki on SERT (setting [2]) and at DAT (setting [3]) were 1010 ± 94 nM and 178 ± 35 nM, respectively. Besides, at DAT, the SERT/DAT turned out to be 5.67.
Take `Cl.Cl.OC(Cc1ccccc1)CN(CC(O)Cc1ccccc1)C1CCN(CCSC(c2ccc(F)cc2)c2ccc(F)cc2)CC1` (stereo not drawn) [JBG01-056, 3,3′-((1-(2-((Bis(4-fluorophenyl)methyl)thio)ethyl)piperidin-4-yl)azanediyl)bis(1-phenylpropan-2-ol)]: on σ1R, the affinity, expressed as Kd, was 326 ± 22.4 nM; the σ1/DAT stood at 1.75; the σ1/SERT was 0.21. The Ki on SERT stood at 1570 ± 315 nM. Moreover, on DAT, the inhibition constant (Ki) is 186 ± 46.4 nM and the SERT/DAT came out at 8.44.
As to `Fc1ccc(C(SCCNC2CCN(Cc3ccccc3)CC2)c2ccc(F)cc2)cc1` [JBG01-052, 1-Benzyl-N-(2-((bis(4-fluorophenyl)methyl)thio)ethyl)piperidin-4-amine], at σ1R, the Kd turned out to be 3.97 ± 0.767 nM, the σ1/DAT stood at 0.12 and the σ1/SERT was 0.0098. Moreover, the inhibition constant (Ki) on SERT (setting [2]) stood at 407 ± 57.9 nM. In addition, on DAT (setting [3]), the Ki came out at 32.9 ± 5.86 nM. Also, at DAT, the SERT/DAT is listed as 12.37.
